Tests used:
Assay in all cases: relative viability (nuclei count vs DMSO), 5 days (fraction); higher = more cells survive
Alisertib = compound: COc1cc(Nc2ncc3c(n2)-c2ccc(Cl)cc2C(c2c(F)cccc2OC)=NC3)ccc1C(=O)O [Alisertib]
In short: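 Lung cancer cell lines in 1536-well plates were exposed by pinning to five library-drug doses (not always all listed) √10 apart, following an overnight hold at 37 °C. MetaXpress counted Hoechst-stained nuclei from 4× images taken after 5 days without medium change. Viability is the median ratio of treated-well to vehicle-well nuclei across plates. Plates required control CV below 25% and at least one doubling.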

Alisertib + Trametinib = compound: COc1cc(Nc2ncc3c(n2)-c2ccc(Cl)cc2C(c2c(F)cccc2OC)=NC3)ccc1C(=O)O [Alisertib] + CC(=O)Nc1cccc(-n2c(=O)n(C3CC3)c(=O)c3c(Nc4ccc(I)cc4F)n(C)c(=O)c(C)c32)c1 [Trametinib] (partner 0.02 µM)
In short: (§1)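 Lung cancer cell lines were seeded in 1536-well plates and dosed by pin tool the next day, with either a single drug or a fixed anchor-drug dose combined with five library-drug doses (not always all listed) spaced in √10 steps. Five days later, one step fixed the cells and stained their nuclei (final 0.05% Triton X-100, 1% formaldehyde, 1 ug/ml Hoechst), and nuclei were counted on 4× images. Relative viability is the nuclei count in treated wells divided by the count in vehicle wells, and each value is the median of duplicate plates.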

Alisertib + OSI-027 = compound: COc1cc(Nc2ncc3c(n2)-c2ccc(Cl)cc2C(c2c(F)cccc2OC)=NC3)ccc1C(=O)O [Alisertib] + COc1cccc2cc(-c3nc([C@H]4CC[C@H](C(=O)O)CC4)n4ncnc(N)c34)[nH]c12 [OSI-027] (partner 0.5 µM)
In short: as §1

Alisertib + Phenformin = compound: COc1cc(Nc2ncc3c(n2)-c2ccc(Cl)cc2C(c2c(F)cccc2OC)=NC3)ccc1C(=O)O [Alisertib] + N=C(N)NC(=N)NCCc1ccccc1 [Phenformin] (partner 250 µM)
In short: as §1

NCI-H2342
relative viability (Alisertib; 0.005 µM): 0.812 | relative viability (Alisertib; 0.01581 µM): 0.978 | relative viability (Alisertib; 0.05 µM): 0.776 | relative viability (Alisertib; 0.1581 µM): 0.551 | relative viability (Alisertib; 0.5 µM): 0.42 | relative viability (Alisertib + Trametinib; first compound 0.005 µM): 0.758 | relative viability (Alisertib + Trametinib; first compound 0.01581 µM): 0.809 | relative viability (Alisertib + Trametinib; first compound 0.05 µM): 0.483 | relative viability (Alisertib + Trametinib; first compound 0.1581 µM): 0.481 | relative viability (Alisertib + Trametinib; first compound 0.5 µM): 0.443 | relative viability (Alisertib + OSI-027; first compound 0.005 µM): 0.529 | relative viability (Alisertib + OSI-027; first compound 0.01581 µM): 0.643 | relative viability (Alisertib + OSI-027; first compound 0.05 µM): 0.589 | relative viability (Alisertib + OSI-027; first compound 0.1581 µM): 0.468 | relative viability (Alisertib + OSI-027; first compound 0.5 µM): 0.383 | relative viability (Alisertib + Phenformin; first compound 0.005 µM): 0.552 | relative viability (Alisertib + Phenformin; first compound 0.01581 µM): 0.551 | relative viability (Alisertib + Phenformin; first compound 0.05 µM): 0.581 | relative viability (Alisertib + Phenformin; first compound 0.1581 µM): 0.41 | relative viability (Alisertib + Phenformin; first compound 0.5 µM): 0.362

NCI-H2347
relative viability (Alisertib; 0.005 µM): 1.01 | relative viability (Alisertib; 0.01581 µM): 0.906 | relative viability (Alisertib; 0.05 µM): 0.862 | relative viability (Alisertib; 0.1581 µM): 0.703 | relative viability (Alisertib; 0.5 µM): 0.428 | relative viability (Alisertib + Trametinib; first compound 0.005 µM): 0.281 | relative viability (Alisertib + Trametinib; first compound 0.01581 µM): 0.273 | relative viability (Alisertib + Trametinib; first compound 0.05 µM): 0.286 | relative viability (Alisertib + Trametinib; first compound 0.1581 µM): 0.271 | relative viability (Alisertib + Trametinib; first compound 0.5 µM): 0.237 | relative viability (Alisertib + OSI-027; first compound 0.005 µM): 0.373 | relative viability (Alisertib + OSI-027; first compound 0.01581 µM): 0.346 | relative viability (Alisertib + OSI-027; first compound 0.05 µM): 0.373 | relative viability (Alisertib + OSI-027; first compound 0.1581 µM): 0.377 | relative viability (Alisertib + OSI-027; first compound 0.5 µM): 0.282 | relative viability (Alisertib + Phenformin; first compound 0.005 µM): 0.346 | relative viability (Alisertib + Phenformin; first compound 0.01581 µM): 0.373 | relative viability (Alisertib + Phenformin; first compound 0.05 µM): 0.299 | relative viability (Alisertib + Phenformin; first compound 0.1581 µM): 0.411 | relative viability (Alisertib + Phenformin; first compound 0.5 µM): 0.242

NCI-H2405
relative viability (Alisertib; 0.005 µM): 0.952 | relative viability (Alisertib; 0.01581 µM): 0.967 | relative viability (Alisertib; 0.05 µM): 0.833 | relative viability (Alisertib; 0.1581 µM): 0.41 | relative viability (Alisertib; 0.5 µM): 0.282 | relative viability (Alisertib + Trametinib; first compound 0.005 µM): 0.614 | relative viability (Alisertib + Trametinib; first compound 0.01581 µM): 0.559 | relative viability (Alisertib + Trametinib; first compound 0.05 µM): 0.575 | relative viability (Alisertib + Trametinib; first compound 0.1581 µM): 0.418 | relative viability (Alisertib + Trametinib; first compound 0.5 µM): 0.217 | relative viability (Alisertib + OSI-027; first compound 0.005 µM): 0.63 | relative viability (Alisertib + OSI-027; first compound 0.01581 µM): 0.666 | relative viability (Alisertib + OSI-027; first compound 0.05 µM): 0.592 | relative viability (Alisertib + OSI-027; first compound 0.1581 µM): 0.321 | relative viability (Alisertib + OSI-027; first compound 0.5 µM): 0.231 | relative viability (Alisertib + Phenformin; first compound 0.005 µM): 0.366 | relative viability (Alisertib + Phenformin; first compound 0.01581 µM): 0.46 | relative viability (Alisertib + Phenformin; first compound 0.05 µM): 0.371 | relative viability (Alisertib + Phenformin; first compound 0.1581 µM): 0.28 | relative viability (Alisertib + Phenformin; first compound 0.5 µM): 0.247

NCI-H3122
relative viability (Alisertib; 0.005 µM): 0.943 | relative viability (Alisertib; 0.01581 µM): 0.977 | relative viability (Alisertib; 0.05 µM): 0.831 | relative viability (Alisertib; 0.1581 µM): 0.405 | relative viability (Alisertib; 0.5 µM): 0.295 | relative viability (Alisertib + Trametinib; first compound 0.005 µM): 0.238 | relative viability (Alisertib + Trametinib; first compound 0.01581 µM): 0.214 | relative viability (Alisertib + Trametinib; first compound 0.05 µM): 0.198 | relative viability (Alisertib + Trametinib; first compound 0.1581 µM): 0.176 | relative viability (Alisertib + Trametinib; first compound 0.5 µM): 0.131 | relative viability (Alisertib + OSI-027; first compound 0.005 µM): 0.86 | relative viability (Alisertib + OSI-027; first compound 0.01581 µM): 0.754 | relative viability (Alisertib + OSI-027; first compound 0.05 µM): 0.599 | relative viability (Alisertib + OSI-027; first compound 0.1581 µM): 0.336 | relative viability (Alisertib + OSI-027; first compound 0.5 µM): 0.149 | relative viability (Alisertib + Phenformin; first compound 0.005 µM): 0.376 | relative viability (Alisertib + Phenformin; first compound 0.01581 µM): 0.371 | relative viability (Alisertib + Phenformin; first compound 0.05 µM): 0.37 | relative viability (Alisertib + Phenformin; first compound 0.1581 µM): 0.248 | relative viability (Alisertib + Phenformin; first compound 0.5 µM): 0.142

PC-3 [JPC-3]
relative viability (Alisertib; 0.005 µM): 0.974 | relative viability (Alisertib; 0.01581 µM): 0.976 | relative viability (Alisertib; 0.05 µM): 0.932 | relative viability (Alisertib; 0.1581 µM): 0.48 | relative viability (Alisertib; 0.5 µM): 0.398 | relative viability (Alisertib + Trametinib; first compound 0.005 µM): 0.669 | relative viability (Alisertib + Trametinib; first compound 0.01581 µM): 0.649 | relative viability (Alisertib + Trametinib; first compound 0.05 µM): 0.591 | relative viability (Alisertib + Trametinib; first compound 0.1581 µM): 0.526 | relative viability (Alisertib + Trametinib; first compound 0.5 µM): 0.493 | relative viability (Alisertib + OSI-027; first compound 0.005 µM): 0.784 | relative viability (Alisertib + OSI-027; first compound 0.01581 µM): 0.764 | relative viability (Alisertib + OSI-027; first compound 0.05 µM): 0.703 | relative viability (Alisertib + OSI-027; first compound 0.1581 µM): 0.407 | relative viability (Alisertib + OSI-027; first compound 0.5 µM): 0.306 | relative viability (Alisertib + Phenformin; first compound 0.005 µM): 0.488 | relative viability (Alisertib + Phenformin; first compound 0.01581 µM): 0.456 | relative viability (Alisertib + Phenformin; first compound 0.05 µM): 0.484 | relative viability (Alisertib + Phenformin; first compound 0.1581 µM): 0.377 | relative viability (Alisertib + Phenformin; first compound 0.5 µM): 0.293

— the supplement of paper PMC10307832
